Test results taken from US10016424B2, “Method and pharmaceutical composition for use in the treatment of epilepsy” (INSERM (Institut National de la Sante et de la Recherche …, priority 2013, dated 2018).

Tests used:
KARs = biological target: T1, KARs (Mus musculus, UniProt P39087+Q61626); type: cell-based; conditions: WT cultured slices; SYM2081 10 μM, UBP310 5 μM; Sr2+ conditions, 5 μM gabazine, 40 μM D-APV
T1 construct: from tissue; host or cells: dentate granule cells in pilocarpine-treated organotypic hippocampal/entorhinal slice cultures from WT mice (FVB/N)
T1 sequence (P39087 32-908): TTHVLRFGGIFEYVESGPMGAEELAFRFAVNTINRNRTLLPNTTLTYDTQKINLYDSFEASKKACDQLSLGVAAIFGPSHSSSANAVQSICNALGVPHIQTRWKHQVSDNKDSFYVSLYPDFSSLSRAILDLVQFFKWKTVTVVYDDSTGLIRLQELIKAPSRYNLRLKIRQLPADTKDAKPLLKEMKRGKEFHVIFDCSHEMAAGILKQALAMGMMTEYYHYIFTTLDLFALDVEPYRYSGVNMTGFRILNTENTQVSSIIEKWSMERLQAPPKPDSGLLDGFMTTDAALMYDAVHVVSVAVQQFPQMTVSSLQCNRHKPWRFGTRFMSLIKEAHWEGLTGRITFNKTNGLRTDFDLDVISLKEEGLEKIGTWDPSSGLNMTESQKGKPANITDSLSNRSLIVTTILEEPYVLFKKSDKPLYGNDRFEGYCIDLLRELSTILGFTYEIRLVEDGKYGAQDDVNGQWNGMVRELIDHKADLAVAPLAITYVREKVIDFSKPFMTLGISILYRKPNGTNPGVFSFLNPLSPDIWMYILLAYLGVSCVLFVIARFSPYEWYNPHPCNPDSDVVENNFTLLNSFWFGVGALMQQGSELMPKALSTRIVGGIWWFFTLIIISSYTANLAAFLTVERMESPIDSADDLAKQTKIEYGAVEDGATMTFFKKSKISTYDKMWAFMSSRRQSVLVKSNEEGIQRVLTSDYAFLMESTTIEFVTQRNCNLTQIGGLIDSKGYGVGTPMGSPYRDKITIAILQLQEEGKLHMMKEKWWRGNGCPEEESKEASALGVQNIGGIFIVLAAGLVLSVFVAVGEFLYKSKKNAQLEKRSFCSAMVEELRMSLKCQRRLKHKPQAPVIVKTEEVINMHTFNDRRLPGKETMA
T1 sequence (Q61626 15-979): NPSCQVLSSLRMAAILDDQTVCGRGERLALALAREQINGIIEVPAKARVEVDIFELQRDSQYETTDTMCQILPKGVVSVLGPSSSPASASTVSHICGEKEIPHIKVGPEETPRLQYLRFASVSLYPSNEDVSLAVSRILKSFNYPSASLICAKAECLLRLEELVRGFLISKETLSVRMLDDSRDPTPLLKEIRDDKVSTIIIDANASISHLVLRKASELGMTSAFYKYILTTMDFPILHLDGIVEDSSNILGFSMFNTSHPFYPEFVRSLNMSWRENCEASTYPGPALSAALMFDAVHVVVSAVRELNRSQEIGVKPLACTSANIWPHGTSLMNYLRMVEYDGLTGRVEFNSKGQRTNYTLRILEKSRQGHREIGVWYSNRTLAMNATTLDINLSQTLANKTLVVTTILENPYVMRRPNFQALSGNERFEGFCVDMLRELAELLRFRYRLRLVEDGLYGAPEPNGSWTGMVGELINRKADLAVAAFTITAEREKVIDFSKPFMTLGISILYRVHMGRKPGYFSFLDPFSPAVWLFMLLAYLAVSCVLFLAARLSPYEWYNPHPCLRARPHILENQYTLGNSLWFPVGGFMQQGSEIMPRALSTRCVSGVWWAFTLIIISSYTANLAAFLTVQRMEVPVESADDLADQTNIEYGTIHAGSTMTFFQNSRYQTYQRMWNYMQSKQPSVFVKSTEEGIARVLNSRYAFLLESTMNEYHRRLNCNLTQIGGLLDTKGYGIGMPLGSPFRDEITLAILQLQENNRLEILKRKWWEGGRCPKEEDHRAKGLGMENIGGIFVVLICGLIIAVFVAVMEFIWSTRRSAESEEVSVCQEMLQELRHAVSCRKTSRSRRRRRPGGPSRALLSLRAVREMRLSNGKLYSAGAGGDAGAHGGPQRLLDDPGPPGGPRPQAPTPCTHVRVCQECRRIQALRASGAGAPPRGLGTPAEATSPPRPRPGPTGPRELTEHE
Experimental: Hippocampal/entorhinal cortex slices (350 μm) were prepared from pre-genotyped GluK2−/− and WT mice (P9-10, FVB/N background) using a McIlwain tissue chopper. Slices were placed on mesh inserts (Millipore # PICMORG50) inside culture dishes containing 1 ml of the following medium: MEM 50%, HS 25%, HBSS 25%, HEPES 15 mM glucose 6.5 mg/ml and insulin 0.1 mg/ml. Culture medium was changed every 2-3 days and slices maintained in an incubator at 37° C./5% CO2. Pilocarpine (0.5 μM) was added to the medium at 5 D.I.V and removed at 7 D.I.V; slices were utilized for experiments from 9 D.I.V.
Cultured or acute slices were individually transferred to a recording chamber maintained at 30-32° C. and continuously perfused (2 ml/min) with oxygenated normal or adapted ACSF containing 5 μM gabazine. Local field potentials were made in the granule cell layer of the DG with glass electrodes (2-3 MΩ; filled with normal ACSF) using a DAM-80 amplifier (low filter, 1 Hz; […], 3 KHz; World Precision Instruments, Sarasota, Fla.). For evoked synaptic transmission, electrical stimulation was performed with a bipolar NiCh electrode (#762000, AM systems). […] Signals were analyzed off-line using Clampfit 9.2 (PClamp) and MiniAnalysis 6.0.1 (Synaptosoft, Decatur, Ga.). In organotypic slices, spontaneous EPSCs were recorded at the reversal potential for GABAergic currents (Vh=−70 mV). To characterize the nature and kinetic properties of fast and slow events, miniature EPSCs (mEPSCs) evoked in Sr2+ conditions (external Ca2+ was substituted with 1.2 mM Sr2+) were recorded in DGCs from GluK2−/− and WT slices. Electrical stimulation was made in the molecular layer in the continued presence of 5 μM gabazine and 40 μM D-APV; asynchronous mEPSCs were measured during the 300 ms period after the stimulus artifact. […] Filtered traces were also analyzed by Fourier analysis (Hamming) using Clampfit 9.2. In acute hippocampal slices, intensity of antidromically-evoked bursts was quantified using coastline index (Epsztein et al., 2005).

[1] = test system: bursts driven by recurrent mossy fibers in DG; assay: Antidromically evoked bursts (coastline burst index) in dentate gyrus of acute slices from pilocarpine-treated mice; type: cell-based, mouse; conditions: WT mice; bath application
Experimental: All experiments were approved by the Institut National de la Santé et de la Recherche Médicale animal care and use committee of May 29, 2001 (2001-464) and the European community council directive of Nov. 24, 1986 (86/609/EEC). Mice (FVB/N background) had access to food and water ad libitum and were housed under a 12 h light/dark cycle at 22-24° C. Male GluK2−/− and WT mice (P60-80) were given scopolamine (1 mg/kg) subcutaneously (s.c.) 15 minutes prior to s.c. administration of pilocarpine (200-600 mg/kg). A ramp protocol was used whereby animals were given an initial dose of 200 mg/kg followed by half-doses every 30 minutes until seizures appeared. […] Diazepam (10 mg/kg) was administered 45 minutes after onset of SE. […]
Cultured or acute slices were individually transferred to a recording chamber maintained at 30-32° C. and continuously perfused (2 ml/min) with oxygenated normal or adapted ACSF containing 5 μM gabazine. […] Signals were analyzed off-line using Clampfit 9.2 (PClamp) and MiniAnalysis 6.0.1 (Synaptosoft, Decatur, Ga.). In organotypic slices, spontaneous EPSCs were recorded at the reversal potential for GABAergic currents (Vh=−70 mV). To characterize the nature and kinetic properties of fast and slow events, miniature EPSCs (mEPSCs) evoked in Sr2+ conditions (external Ca2+ was substituted with 1.2 mM Sr2+) were recorded in DGCs from GluK2−/− and WT slices. […]

In the case of `Cc1cn(C[C@H](N)C(=O)O)c(=O)n(Cc2ccsc2C(=O)O)c1=O` [UBP310], the “effect on KAR-mediated mEPSCs” value (KARs) is reported as “abolished” and the “reduction of evoked bursts (coastline burst index)” value [1] is reported as 55%.
